Data on five compounds can be found in patent US20220029188A1, “REDOX FLOW BATTERY” (IP2IPO Innovations Limited, priority 2018, published 2022).

Series [1] in a line: Rotating disk electrode LSV, Levich, Koutecký-Levich and Tafel analysis, 1 mM BQDS in 1 M H2SO4. The format is physicochemical. How it is done: (§1) Rotating Disk Electrode (RDE) techniques were performed using a mirror polished glassy 5 mm diameter carbon disk electrode (Pine Instruments, AFE6R1 AU) equipped within a rotator (AFMSRCE). Electrochemical tests were performed using a potentiostat (Autolab, model PGSTAT20) and a three-compartment electrochemical glass cell which employed a Pt wire counter electrode. A saturated calomel reference electrode (SCE, E°=0.244 V vs. SHE at 25° C.) was used as the reference electrode, which was ionically connected to the main compartment of the electrochemical glass cell via a Luggin capillary.
(§2) The rotation rates were from 500 rpm to 3000 rpm. CV scan rates were from 10 mV s^−1 to 200 mV s^−1. LSV scan rate was 5 mV s^−1.

The nature of series [2]: Standard electrochemical potential from CV experiments. The format is physicochemical. As for the experimental part: as §1, §2
Series [3] can be described thus: Cyclic voltammogram of 1 mM BQ in 1 M H2SO4. The format is physicochemical. Conditions: 1 mM in 1 M sulphuric acid, scan rate 50 mV s^−1, glassy carbon electrode. The text has this:
The working electrode was a glassy carbon electrode and the counter electrode was a platinum wire.

The nature of series [4]: Rotating disk electrode measurements (Levich equation), Example 6. The class given is physicochemical. Particulars: 1 mM, kinematic viscosity 0.01 cm^2 s^−1. How it is done:
The hydroquinone concentration was 1 mM and the kinematic viscosity of the solution was 0.01 cm^2 s^−1. Using the Levich equation, the diffusion coefficient of benzoquinone was calculated to be 1.5707×10^−7 cm^2 s^−1.

For series [5] the following is noted: comparison systems; cited from earlier work.
The conditions of series [6]: comparison systems; cited from earlier work. The source holds these as a separate data set.
The conditions of series [7]: comparison species; cited from earlier work.

In brackets after ≈: the same amount, converted by molar mass. Read-outs that look alike come from different tables or passages of the source.

Consider `O=S(=O)([O-])c1cc(O)c(O)c(S(=O)(=O)[O-])c1.[Na+].[Na+]` [BQDS, 4,5-Dihydroxy-1,3-benzenedisulfonic acid disodium salt monohydrate], for which the diffusion coefficient in series [1] (determined from LSV, 1 mM in 1 M H2SO4) was 5.15×10^−6 cm^2 s^−1. Further, the charge transfer coefficient in series [1] (from Koutecký-Levich plots and Tafel plot) is 0.34. In series [2], this compound displayed a standard electrochemical potential of 0.86 V vs SHE.

For `O=C1C=C(S(=O)(=O)O)C=C(S(=O)(=O)O)C1=O` [BQ], in series [3], the oxidation peak was 1 V vs MSE and the reduction peak came out at 0.7 V vs MSE. Further, in series [4], the diffusion coefficient was 1.5707×10^−7 cm^2 s^−1.

Turning to `C[N+](C)(C)C[c-]1cccc1.[Cl-].[Fe+2].c1cc[cH-]c1` [Fe-NCL, (ferrocenylmethyl)trimethylammonium chloride], in series [5], the solubility (commonly the concentration that dissolves in the medium under given conditions) is 4000 mM. Besides, the electrochemical potential in series [6] is listed as 0.67 V vs SHE. Further, in series [7], the diffusion coefficient was 3.74×10^−6 cm^2 s^−1.

For the compound `CC1(C)CCCC(C)(C)N1[O]` [TEMPO], in series [6], the electrochemical potential is listed as 0.90 V vs SHE. For the same compound, in series [7], the charge transfer coefficient is given as 0.68 and the diffusion coefficient was 7.00×10^−8 cm^2 s^−1.

As for `Oc1ccc(O)cc1` [hydroquinone], in series [5], the solubility was 500 mM (≈ 55.1 mg/mL). The electrochemical potential entry in series [6] was “identical potential as Fe-NCL”. In addition, in series [7], the charge transfer coefficient is 0.51 and the diffusion coefficient is listed as 5.03×10^−6 cm^2 s^−1.
